Assay results as given in patent US20230241071A1, “COMBINATION TREATMENT OF LIVER DISORDERS” (Terns Pharmaceuticals, Inc., priority 2021, published 2023).
Several values for one entry are separate records, joined by “and”; a condition that tells them apart may be missing. Identical values can stand only once. Entries after “also recorded” stand apart in the source; their conditions may differ.

Tests used:
BCRP = target: T1, BCRP (Homo sapiens, UniProt Q9UNQ0)
T1 sequence (Q9UNQ0 1-655): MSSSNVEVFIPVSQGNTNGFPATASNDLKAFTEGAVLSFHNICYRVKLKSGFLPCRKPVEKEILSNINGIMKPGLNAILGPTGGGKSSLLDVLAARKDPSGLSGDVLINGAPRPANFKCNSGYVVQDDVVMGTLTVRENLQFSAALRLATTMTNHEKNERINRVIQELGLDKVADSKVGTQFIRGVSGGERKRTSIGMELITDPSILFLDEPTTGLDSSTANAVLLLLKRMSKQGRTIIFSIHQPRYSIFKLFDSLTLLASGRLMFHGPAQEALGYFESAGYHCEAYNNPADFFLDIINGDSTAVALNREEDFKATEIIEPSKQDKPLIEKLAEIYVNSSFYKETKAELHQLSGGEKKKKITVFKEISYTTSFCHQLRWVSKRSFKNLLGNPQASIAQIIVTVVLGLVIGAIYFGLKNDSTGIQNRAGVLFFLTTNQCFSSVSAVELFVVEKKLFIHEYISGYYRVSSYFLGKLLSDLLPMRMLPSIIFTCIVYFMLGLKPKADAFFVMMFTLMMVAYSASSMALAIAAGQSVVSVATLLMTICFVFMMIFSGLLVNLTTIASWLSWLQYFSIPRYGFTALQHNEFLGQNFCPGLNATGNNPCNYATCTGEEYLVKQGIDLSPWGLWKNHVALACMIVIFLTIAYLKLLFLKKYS

DIO-GAN NASH mouse model = experiment: Biopsy-confirmed DIO-GAN NASH mice, 12 weeks mono- and combination treatment; format: in vivo; details: for hepatomegaly (liver weight) / spleen weight / total cholesterol (plasma): vs DIO-GAN vehicle control; for plasma triglycerides: Compound 2-high 10 mg/kg, combinations; for α-SMA (IHC), marker of hepatic stellate cell activation: Compound 3, Compound 2-low and -med, Combo-low
Description: C57BL/6JRj male mice (n=138) were fed the Gubra Amylin NASH (GAN) diet (40% fat, 22% fructose, 2% cholesterol [D09100310, Research Diets]) or lean chow diet for 35 weeks before treatment start. Prior to treatment all animals underwent liver biopsy for histological confirmation (steatosis score ≥2 and fibrosis stage ≥1) and stratification using the nonalcoholic fatty liver disease (NAFLD) activity scoring (NAS) and fibrosis staging system. The diet-induced obese mice on GAN diet (DIO-GAN) were randomized to 8 treatment groups […] based on percent-area of picrosirius red (PSR) staining. DIO-GAN mice (n=16 per group) received treatment (PO, QD) for 12 weeks with vehicle (0.5% HPMC+0.2% Tween-80 in Tris buffer [50 mM, pH 8]), Compound 3 (10 mg/kg), Compound 2 (0.3 mg/kg [low], 2 mg/kg [med], or 10 mg/kg [high]), or combination treatments of Compound 3 with Compound 2 (Combo-low, Combo-med or Combo-high). Vehicle-dosed lean chow-fed controls served as healthy controls (n=10). Mice were maintained on their respective diets (GAN or lean chow) for the duration of the study. Within-subject comparisons (pre- vs. post-treatment) were performed for liver biopsy histopathological scores. Terminal quantitative endpoints included plasma/liver biochemistry, liver histomorphometry, and liver transcriptomic analysis by RNAseq.
Formalin-fixed paraffin-embedded (FFPE) liver biopsies were prepared by placing liver samples into 10% neutral buffered formalin for ˜24 hours and then transferred to 70% ethanol prior to storage at 4 C. FFPE were placed in the Histokinette to infiltrate prior to embedding in blocks. Biopsy tissues were then cut at 3 μm using a microtome and sections were mounted on slides. Liver sections were stained with Hematoxylin and Eosin (H&E) to assess steatosis, inflammation, and ballooning, and PSR to assess fibrosis. Additionally, slides were processed to detect type I collagen (Col1a1), galectin-3 (Gal-3), and smooth muscle actin (α-SMA) protein expression by immunohistochemistry (IHC). For H&E staining, slides were incubated in Mayer's Hematoxylin (Dako), washed with tap water, stained in Eosin Y solution (Sigma-Aldrich), dehydrated, and coverslipped. For PSR, slides were incubated in Weigert's iron hematoxylin (Sigma-Aldrich), washed in tap water, stained in Picro-sirius red (Sigma-Aldrich), and washed twice in acidified water. Excess water was removed by shaking the slides and the slides were then dehydrated with ethanol, cleared in xylene, and cover-slipped. The NAS and fibrosis stage were scored as described previously (Kleiner et al. 2005). NAS represents the unweighted sum of steatosis, inflammation, and ballooning scores and ranges for 0-8 (Table 26); fibrosis stage ranges from 0 (no fibrosis) to 4 (cirrhosis). For detection of Col1a1, Gal-3 and α-SMA, IHC was performed by standard procedures. Briefly, after antigen retrieval and blocking of endogenous peroxidase activity, slides were incubated with primary antibody (Col1a1: Southern Biotech, Cat. 1310-01; Gal-3: Biolegend, Cat. 125402; α-SMA: Abcam Cat. Ab124964). Primary antibody was detected using a polymeric HRP-linker antibody conjugate. Primary antibody was visualized with DAB as chromogen. Finally, sections were counterstained in hematoxylin and cover-slipped.
Terminal blood was harvested by cardiac puncture from mice anesthetized with isoflurane (2-3%), mixed with anticoagulant, and placed at 4 C prior to centrifugation at 3000×g for 10 minutes. Plasma supernatants were transferred to new tubes and immediately frozen on dry ice and stored at −80 C. Alanine transaminase (ALT), Aspartate transaminase (AST), Alkaline phosphatase (ALP), Triglycerides (TGs), Total Cholesterol (TC), High-density lipoprotein (HDL-c), and Low-density lipoprotein (LDL-c) were measured using commercial kits (Roche Diagnostics) on the Cobas c 501 autoanalyzer according to manufacturer's instructions. […]

[1] = 12 wk PO QD, Compound 3 10 mg/kg
[2] = 12 wk PO QD, high: Compound 2 10 mg/kg, alone or (Combo) + Compound 3 10 mg/kg
[3] = 12 wk PO QD, high: Compound 2 10 mg/kg, alone or (Combo) + Compound 3 10 mg/kg, 10 mg/kg
[4] = 12 wk PO QD, low: Compound 2 0.3 mg/kg, alone or (Combo) + Compound 3 10 mg/kg
[5] = 12 wk PO QD, med: Compound 2 2 mg/kg, alone or (Combo) + Compound 3 10 mg/kg
[6] = 12 wk PO QD, single agent 10 mg/kg

## N#Cc1nn(-c2cc(Cl)c(Oc3n[nH]c(=O)c4ccccc34)c(Cl)c2)c(=O)[nH]c1=O [Compound 2, 2-(3,5-dichloro-4-((4-oxo-3,4-dihydrophthalazin-1-yl)oxy)phenyl)-3,5-dioxo-2,3,4,5-tetrahydro-1,2,4-triazine-6-carbonitrile]
BCRP
  IC50: 9.37 µM
DIO-GAN NASH mouse model; 12 wk PO QD
  hepatomegaly (liver weight): significantly reduced hepatomegaly
  spleen weight: without changes in spleen weight
  total cholesterol (plasma): significantly reduced total cholesterol
  α-SMA (IHC), marker of hepatic stellate cell activation: Numeric reductions
DIO-GAN NASH mouse model; 12 wk PO QD, Compound 2 low, med, and high
  ALT levels relative to DIO-GAN vehicle control: significantly reduced; also recorded: significantly lowered ALT levels
DIO-GAN NASH mouse model; [1]
  plasma triglycerides: significantly reduced plasma triglycerides
DIO-GAN NASH mouse model; [2]
  Histological steatosis score: mice improving 1-pt: 75%
  Histological steatosis score: mice with no change: 18.75%
  Liver fibrosis stage: mice improving: 6.25%
  Liver fibrosis stage: mice with no change: 68.75%
  Liver fibrosis stage: mice worsening: 25%
  Lobular inflammation: mice improving: 12.5%
  Lobular inflammation: mice with no change: 56.25%
  Lobular inflammation: mice worsening: 31.25%
  NAS: mice improving 1-pt: 37.5%
  NAS: mice with no change: 31.25%
  NAS: mice worsening ≥1-pt: 6.25%
DIO-GAN NASH mouse model; [3]
  Histological steatosis score: mice improving >2-pt: 6.25%
  Histological steatosis score: mice improving, Total (at least 1-pt): 81% and 81.25%
  NAS: mice improving ≥2-pt: 25%
  NAS: mice improving, Total (≥1-pt): 62% and 62.5%
DIO-GAN NASH mouse model; [4]
  Histological steatosis score: mice improving 1-pt: 25%
  Histological steatosis score: mice improving >2-pt: 6.25%
  Histological steatosis score: mice improving, Total (at least 1-pt): 31% and 31.25%
  Histological steatosis score: mice with no change: 68.75%
  Liver fibrosis stage: mice improving: 6.25%
  Liver fibrosis stage: mice with no change: 62.5%
  Liver fibrosis stage: mice worsening: 31.25%
  Lobular inflammation: mice improving: 6.25%
  Lobular inflammation: mice with no change: 68.75%
  Lobular inflammation: mice worsening: 25%
  NAS: mice improving 1-pt: 31.25%
  NAS: mice improving ≥2-pt: 0%
  NAS: mice improving, Total (≥1-pt): 31% and 31.25%
  NAS: mice with no change: 56.25%
  NAS: mice worsening ≥1-pt: 12.5%
DIO-GAN NASH mouse model; [5]
  Histological steatosis score: mice improving 1-pt: 40%
  Histological steatosis score: mice improving >2-pt: 6.7%
  Histological steatosis score: mice improving, Total (at least 1-pt): 47% and 46.7%
  Histological steatosis score: mice with no change: 53.33%
  Liver fibrosis stage: mice improving: 13.33%
  Liver fibrosis stage: mice with no change: 60%
  Liver fibrosis stage: mice worsening: 26.7%
  Lobular inflammation: mice improving: 6.7%
  Lobular inflammation: mice with no change: 73.3%
  Lobular inflammation: mice worsening: 20%
  NAS: mice improving 1-pt: 20%
  NAS: mice improving ≥2-pt: 7% and 6.7%
  NAS: mice improving, Total (≥1-pt): 27% and 26.7%
  NAS: mice with no change: 73.33%
  NAS: mice worsening ≥1-pt: 0%
DIO-GAN NASH mouse model; liver RNAseq, Compound 2-low (0.3 mg/kg)
  number of DEGs vs DIO-GAN vehicle control: 987

## Cn1cc(C(=O)O)c2ccc(N3CCC(OCc4c(-c5c(Cl)cccc5Cl)noc4C4CC4)CC3)cc21 [Compound 3]
BCRP
  IC50: 4.39 µM
DIO-GAN NASH mouse model; 12 wk PO QD
  Gal-3 expression in the liver (IHC) relative to DIO-GAN vehicle control: reduces expression of Galectin-3; also recorded: lower levels of Gal-3 expression
  body weight during the study: reduced body weight; also recorded: decreased body weight
  hepatomegaly (liver weight): significantly reduced hepatomegaly
  spleen weight: without changes in spleen weight
  total cholesterol (plasma): significantly reduced total cholesterol
  α-SMA (IHC), marker of hepatic stellate cell activation: Numeric reductions
DIO-GAN NASH mouse model; [1]
  Histological steatosis score: mice improving 1-pt: 81.25%
  Histological steatosis score: mice improving >2-pt: 0%
  Histological steatosis score: mice with no change: 18.75%
  Liver fibrosis stage: mice improving: 6.25%
  Liver fibrosis stage: mice with no change: 56.25%
  Liver fibrosis stage: mice worsening: 37.5%
  Lobular inflammation: mice improving: 0%
  Lobular inflammation: mice with no change: 68.75%
  Lobular inflammation: mice worsening: 31.25%
  plasma triglycerides: significantly reduced plasma triglycerides
DIO-GAN NASH mouse model; 12 wk PO QD, Compound 3 10 mg/kg, 10 mg/kg
  Histological steatosis score: mice improving, Total (at least 1-pt): 81% and 81.25%
DIO-GAN NASH mouse model; 12 wk PO QD, Compound 3 10 mg/kg, Combo = + Compound 2 0.3/2/10 mg/kg
  body weight at the end of study vs DIO-GAN vehicle control: significantly lower
DIO-GAN NASH mouse model; [6]
  NAS: mice improving ≥2-pt: 0%
  NAS: mice improving, Total (≥1-pt): 56%
DIO-GAN NASH mouse model; Week 11
  fat tissue mass (EchoMRI): significantly reduced fat tissue mass; also recorded: reduced levels of fat tissue
DIO-GAN NASH mouse model; liver RNAseq
  Scd1 expression: reduced
  expression of Col1a1, Acta2, Lgals3, CD146 relative to DIO-GAN vehicle control: significantly reduced expression
